From patent US20240109865A1, “INDAZOLE COMPOUNDS AS KINASE INHIBITORS” (TYRA BIOSCIENCES, INC., priority 2020, published 2024)

What was measured:
Assay in all cases: Kinase assay, binding constants (Kd), kinase-tagged T7 phage, qPCR
[1] = target: FGFR3 (Homo sapiens (Human), UniProt P22607)
Procedure, shortened: (§1)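 Kinase-tagged T7 phage (grown in BL21-derived E. coli) competed with test compound for immobilized biotinylated ligand on streptavidin beads. Kds came from an 11-point 3-fold dilution series at 0.9% final DMSO. Bound kinase was eluted with non-biotinylated ligand and quantified by qPCR, with Hill slope fixed at −1.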

[2] = target: FGFR1 (Homo sapiens (Human), UniProt P11362)
Procedure, shortened: as §1

[3] = target: FGFR4 (Homo sapiens (Human), UniProt P22455)
Procedure, shortened: as §1

[4] = target: FGFR3 (V555M) (Homo sapiens (Human), UniProt P22607, V555M); conditions: V555M mutant
Procedure, shortened: as §1

[5] = target: FGFR2 (Homo sapiens (Human), UniProt P21802)
Procedure, shortened: as §1

Chain of FGFR3 (P22607 23-806): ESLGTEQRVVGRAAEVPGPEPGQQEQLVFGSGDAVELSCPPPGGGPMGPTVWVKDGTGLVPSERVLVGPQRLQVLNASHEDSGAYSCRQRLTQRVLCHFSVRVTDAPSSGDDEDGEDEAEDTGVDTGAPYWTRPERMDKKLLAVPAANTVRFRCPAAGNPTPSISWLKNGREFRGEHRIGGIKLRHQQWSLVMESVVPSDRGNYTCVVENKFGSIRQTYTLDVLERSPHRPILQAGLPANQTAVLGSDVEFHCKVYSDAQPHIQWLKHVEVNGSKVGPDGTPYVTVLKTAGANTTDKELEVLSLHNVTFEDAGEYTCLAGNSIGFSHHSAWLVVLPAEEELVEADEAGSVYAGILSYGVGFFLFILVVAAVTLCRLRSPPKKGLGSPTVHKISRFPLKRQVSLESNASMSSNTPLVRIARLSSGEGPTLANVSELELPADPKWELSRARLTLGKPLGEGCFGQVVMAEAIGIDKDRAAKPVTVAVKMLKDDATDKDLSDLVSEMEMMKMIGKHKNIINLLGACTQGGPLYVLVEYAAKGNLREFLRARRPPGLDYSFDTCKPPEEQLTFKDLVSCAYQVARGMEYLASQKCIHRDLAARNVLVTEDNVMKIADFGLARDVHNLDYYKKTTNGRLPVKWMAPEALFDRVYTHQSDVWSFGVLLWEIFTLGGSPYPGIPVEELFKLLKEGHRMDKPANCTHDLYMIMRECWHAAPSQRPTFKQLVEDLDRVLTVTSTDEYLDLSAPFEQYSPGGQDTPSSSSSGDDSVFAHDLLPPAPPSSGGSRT
Chain of FGFR3 (V555M) (P22607 23-806 V555M): as the sequence (P22607 23-806) above, with V533M counted along it
Chain of FGFR4 (P22455 22-802): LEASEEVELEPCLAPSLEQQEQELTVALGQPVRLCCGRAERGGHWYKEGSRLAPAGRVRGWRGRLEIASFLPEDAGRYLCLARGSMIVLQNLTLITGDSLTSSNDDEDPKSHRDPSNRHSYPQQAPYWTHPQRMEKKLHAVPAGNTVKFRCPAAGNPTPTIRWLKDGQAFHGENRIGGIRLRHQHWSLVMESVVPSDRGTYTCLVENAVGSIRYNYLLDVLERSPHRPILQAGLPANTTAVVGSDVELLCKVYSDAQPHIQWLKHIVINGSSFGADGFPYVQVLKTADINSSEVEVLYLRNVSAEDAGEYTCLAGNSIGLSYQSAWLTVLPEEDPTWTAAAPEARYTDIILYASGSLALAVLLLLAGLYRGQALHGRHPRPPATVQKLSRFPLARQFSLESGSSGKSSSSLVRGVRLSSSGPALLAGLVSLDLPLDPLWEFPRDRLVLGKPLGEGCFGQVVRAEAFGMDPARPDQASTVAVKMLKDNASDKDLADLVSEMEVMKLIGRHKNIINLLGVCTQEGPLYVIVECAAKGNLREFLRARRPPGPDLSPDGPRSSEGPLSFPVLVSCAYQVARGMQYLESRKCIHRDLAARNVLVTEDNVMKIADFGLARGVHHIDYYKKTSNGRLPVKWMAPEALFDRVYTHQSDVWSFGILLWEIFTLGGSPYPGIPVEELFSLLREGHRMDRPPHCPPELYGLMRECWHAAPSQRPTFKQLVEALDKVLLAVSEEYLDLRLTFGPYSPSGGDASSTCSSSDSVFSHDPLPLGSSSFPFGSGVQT
Chain of FGFR2 (P21802 22-821): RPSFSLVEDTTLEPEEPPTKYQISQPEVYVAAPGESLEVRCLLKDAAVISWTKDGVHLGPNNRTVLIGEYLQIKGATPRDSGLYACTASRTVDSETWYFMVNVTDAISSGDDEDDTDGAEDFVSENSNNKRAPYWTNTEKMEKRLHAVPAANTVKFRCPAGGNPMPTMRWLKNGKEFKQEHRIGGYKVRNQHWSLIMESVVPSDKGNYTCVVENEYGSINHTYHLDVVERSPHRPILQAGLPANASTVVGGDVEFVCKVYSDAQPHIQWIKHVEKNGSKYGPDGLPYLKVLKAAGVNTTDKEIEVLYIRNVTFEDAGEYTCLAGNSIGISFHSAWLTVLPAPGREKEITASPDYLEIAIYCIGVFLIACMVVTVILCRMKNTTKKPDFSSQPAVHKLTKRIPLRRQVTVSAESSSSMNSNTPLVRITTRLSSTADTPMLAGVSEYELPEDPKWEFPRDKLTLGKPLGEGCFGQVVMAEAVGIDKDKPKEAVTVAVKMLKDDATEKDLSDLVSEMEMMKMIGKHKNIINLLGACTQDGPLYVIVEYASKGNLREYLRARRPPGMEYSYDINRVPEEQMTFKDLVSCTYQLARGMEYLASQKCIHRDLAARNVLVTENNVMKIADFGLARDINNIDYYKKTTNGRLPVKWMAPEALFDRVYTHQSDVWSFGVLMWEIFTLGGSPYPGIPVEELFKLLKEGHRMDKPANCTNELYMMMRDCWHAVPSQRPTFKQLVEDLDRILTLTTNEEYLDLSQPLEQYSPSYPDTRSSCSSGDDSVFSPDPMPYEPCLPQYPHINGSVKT
Chain of FGFR1 (P11362 22-822): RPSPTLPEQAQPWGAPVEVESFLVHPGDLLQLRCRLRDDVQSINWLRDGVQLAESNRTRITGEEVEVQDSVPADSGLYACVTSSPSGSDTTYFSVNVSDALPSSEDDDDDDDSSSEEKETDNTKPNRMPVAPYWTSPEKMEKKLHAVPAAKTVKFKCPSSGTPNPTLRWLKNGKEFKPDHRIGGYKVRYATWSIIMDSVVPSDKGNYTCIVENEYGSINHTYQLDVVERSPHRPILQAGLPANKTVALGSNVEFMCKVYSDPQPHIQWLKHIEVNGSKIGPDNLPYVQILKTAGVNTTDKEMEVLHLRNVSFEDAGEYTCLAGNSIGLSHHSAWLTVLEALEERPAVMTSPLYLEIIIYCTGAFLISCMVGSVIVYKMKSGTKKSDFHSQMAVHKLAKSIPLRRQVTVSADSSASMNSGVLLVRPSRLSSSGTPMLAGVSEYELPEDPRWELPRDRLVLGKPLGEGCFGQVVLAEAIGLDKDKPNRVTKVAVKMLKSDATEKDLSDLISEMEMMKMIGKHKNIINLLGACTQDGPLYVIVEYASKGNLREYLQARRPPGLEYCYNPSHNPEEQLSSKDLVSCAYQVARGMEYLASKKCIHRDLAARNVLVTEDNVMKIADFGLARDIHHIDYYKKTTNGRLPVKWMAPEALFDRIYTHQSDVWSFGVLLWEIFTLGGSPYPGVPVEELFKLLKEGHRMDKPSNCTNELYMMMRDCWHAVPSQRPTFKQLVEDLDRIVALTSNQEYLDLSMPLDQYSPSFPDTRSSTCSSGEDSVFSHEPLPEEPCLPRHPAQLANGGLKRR

Row | SMILES | Kd [1] [nM] | Kd [2] [nM] | Kd [3] [nM] | Kd [4] [nM] | Kd [5] [nM] | Kd ([4]; given as a number) [nM]
1 | C[C@@H](Oc1cc2c(-c3cnc(N4CC5(C4)CN(S(C)(=O)=O)C5)c(F)c3)n[nH]c2cc1Cl)c1c(Cl)cnnc1Cl [Example 264, (R)-6-chloro-5-(1-(3,5-dichloropyridazin-4-yl)ethoxy)-3-(5-fluoro-6-(6-(methylsulfonyl)-2,6-diazaspiro[3.3]heptan-2-yl)pyridin-3-yl)-1H-indazole] | 1 to 20 | 1 to 20 | 1 to 20 | 1 to 20 | 1 to 20 | –
2 | C[C@@H](Oc1ccc2[nH]nc(-c3cnc(N4CC(C)(N)C4)c(F)c3)c2c1)c1c(Cl)cncc1Cl [Example 265, (R)-1-(5-(5-(1-(3,5-dichloropyridin-4-yl)ethoxy)-1H-indazol-3-yl)-3-fluoropyridin-2-yl)-3-methylazetidin-3-amine] | 1 to 20 | 1 to 20 | 1 to 20 | 1 to 20 | 1 to 20 | –
3 | Cc1ncc(Cl)c([C@@H](C)Oc2cc3c(-c4ccc(N5CC6(C5)CN(S(C)(=O)=O)C6)nc4)n[nH]c3cc2F)c1Cl [Example 266, 5-[(1R)-1-(3,5-dichloro-2-methyl-4-pyridyl)ethoxy]-6-fluoro-3-[6-(2-methylsulfonyl-2,6-diazaspiro[3.3]heptan-6-yl)-3-pyridyl]-1H-indazole] | 1 to 20 | 1 to 20 | 1 to 20 | 1 to 20 | 1 to 20 | –
4 | COc1cc2[nH]nc(-c3cnc(N4CC[C@H]4C)c(F)c3)c2cc1O[C@H](C)c1c(Cl)cncc1Cl [Example 267, 5-((R)-1-(3,5-dichloropyridin-4-yl)ethoxy)-3-(5-fluoro-6-((R)-2-methylazetidin-1-yl)pyridin-3-yl)-6-methoxy-1H-indazole] | 1 to 20 | 20 to 100 | 1 to 20 | 1 to 20 | 20 to 100 | –
5 | COc1cc2[nH]nc(-c3cnc(N4CCC4)c(F)c3)c2cc1O[C@H](C)c1c(Cl)cncc1Cl [Example 268, (R)-3-(6-(azetidin-1-yl)-5-fluoropyridin-3-yl)-5-(1-(3,5-dichloropyridin-4-yl)ethoxy)-6-methoxy-1H-indazole] | 1 to 20 | 20 to 100 | 1 to 20 | 1 to 20 | 20 to 100 | –
6 | Cc1ncc(Cl)c([C@@H](C)Oc2cc3c(-c4cnc(N5CC6(C5)CN(S(C)(=O)=O)C6)c(F)c4)n[nH]c3cc2F)c1Cl [Example 269, 5-[(1R)-1-(3,5-dichloro-2-methyl-4-pyridyl)ethoxy]-6-fluoro-3-[5-fluoro-6-(2-methylsulfonyl-2,6-diazaspiro[3.3]heptan-6-yl)-3-pyridyl]-1H-indazole] | 1 to 20 | 20 to 100 | 1 to 20 | 1 to 20 | 20 to 100 | –
7 | Cc1ncc(Cl)c([C@@H](C)Oc2cc3c(-c4cnc(N5CC6(C5)CN(S(C)(=O)=O)C6)c(F)c4)n[nH]c3cc2Cl)c1Cl [Example 270, 6-chloro-5-[(1R)-1-(3,5-dichloro-2-methyl-4-pyridyl)ethoxy]-3-[5-fluoro-6-(2-methylsulfonyl-2,6-diazaspiro[3.3]heptan-6-yl)-3-pyridyl]-1H-indazole] | 1 to 20 | 20 to 100 | 1 to 20 | 1 to 20 | 20 to 100 | –
8 | COc1cc2[nH]nc(-c3cnc(N4CC[C@@H]4C)c(F)c3)c2cc1O[C@H](C)c1c(Cl)cncc1Cl [Example 271, 5-((R)-1-(3,5-dichloropyridin-4-yl)ethoxy)-3-(5-fluoro-6-((S)-2-methylazetidin-1-yl)pyridin-3-yl)-6-methoxy-1H-indazole] | 1 to 20 | 20 to 100 | 1 to 20 | 1 to 20 | 20 to 100 | –
9 | C[C@@H]1CCN1c1ncc(-c2n[nH]c3cc(Cl)c(O[C@H](C)c4c(Cl)cncc4Cl)cc23)cc1F [Example 272, 6-chloro-5-((R)-1-(3,5-dichloropyridin-4-yl)ethoxy)-3-(5-fluoro-6-((R)-2-methylazetidin-1-yl)pyridin-3-yl)-1H-indazole] | 20 to 100 | > 300 | 20 to 100 | 20 to 100 | > 300 | –
10 | Cc1cc2[nH]nc(-c3cnc(N4CC5(C4)CN(S(C)(=O)=O)C5)c(F)c3)c2cc1O[C@H](C)c1c(Cl)cnc(C)c1Cl [Example 273, 5-[(1R)-1-(3,5-dichloro-2-methyl-4-pyridyl)ethoxy]-3-[5-fluoro-6-(2-methylsulfonyl-2,6-diazaspiro[3.3]heptan-6-yl)-3-pyridyl]-6-methyl-1H-indazole] | 1 to 20 | 20 to 100 | 1 to 20 | – | 20 to 100 | 1.8
11 | Cc1ncc(Cl)c([C@@H](C)Oc2cc3c(-c4cnc(N5CCC5)c(F)c4)n[nH]c3cc2Cl)c1Cl [Example 274, 3-[6-(azetidin-1-yl)-5-fluoro-3-pyridyl]-6-chloro-5-[(1R)-1-(3,5-dichloro-2-methyl-4-pyridyl)ethoxy]-1H-indazole] | 20 to 100 | 100 to 300 | 20 to 100 | 1 to 20 | 100 to 300 | –
12 | CNC1(C)CN(c2ncc(-c3n[nH]c4cc(Cl)c(O[C@H](C)c5c(Cl)cnc(C)c5Cl)cc34)cc2F)C1 [Example 275, 1-[5-[6-chloro-5-[(1R)-1-(3,5-dichloro-2-methyl-4-pyridyl)ethoxy]-1H-indazol-3-yl]-3-fluoro-2-pyridyl]-N,3-dimethyl-azetidin-3-amine] | 1 to 20 | 1 to 20 | 1 to 20 | 1 to 20 | 20 to 100 | –
13 | C[C@H](Oc1ccc2[nH]nc(-c3cnc(N4CCC4)c(C#N)c3)c2c1)c1c(Cl)cnc(F)c1Cl [Example 283, (S)-2-(azetidin-1-yl)-5-(5-(1-(3,5-dichloro-2-fluoropyridin-4-yl)ethoxy)-1H-indazol-3-yl)nicotinonitrile] | > 300 | > 300 | > 300 | > 300 | > 300 | –

Results, then the compound that gave them:

Row | Kd [1] [nM] | Kd [2] [nM] | Kd [3] [nM] | Kd [4] [nM] | Kd [5] [nM] | Kd ([4]; given as a number) [nM] | SMILES
14 | 1 to 20 | 1 to 20 | 1 to 20 | 1 to 20 | 1 to 20 | – | C[C@@H](Oc1cc2c(-c3cnc(N4CC5(C4)CN(S(C)(=O)=O)C5)c(F)c3)n[nH]c2cc1F)c1c(Cl)cncc1Cl [Example 256, 5-[(1R)-1-(3,5-dichloro-4-pyridyl)ethoxy]-6-fluoro-3-[5-fluoro-6-(2-methylsulfonyl-2,6-diazaspiro[3.3]heptan-6-yl)-3-pyridyl]-1H-indazole]
15 | 1 to 20 | 1 to 20 | 1 to 20 | 1 to 20 | 1 to 20 | – | C[C@@H](Oc1ccc2[nH]nc(-c3ccc(N4CC(C)(N)C4)nc3)c2c1)c1c(Cl)cncc1Cl [Example 257, (R)-1-(5-(5-(1-(3,5-dichloropyridin-4-yl)ethoxy)-1H-indazol-3-yl)pyridin-2-yl)-3-methylazetidin-3-amine]
16 | 1 to 20 | 1 to 20 | 1 to 20 | 1 to 20 | 1 to 20 | – | C[C@@H](Oc1cc2c(-c3cnc(N4CC5(C4)CN(S(C)(=O)=O)C5)c(F)c3)n[nH]c2cc1F)c1c(Cl)cnnc1Cl [Example 258, (R)-5-(1-(3,5-dichloropyridazin-4-yl)ethoxy)-6-fluoro-3-(5-fluoro-6-(6-(methylsulfonyl)-2,6-diazaspiro[3.3]heptan-2-yl)pyridin-3-yl)-1H-indazole]
17 | 1 to 20 | 1 to 20 | 1 to 20 | 1 to 20 | 1 to 20 | – | Cc1cc2[nH]nc(-c3cnc(N4CC5(C4)CN(S(C)(=O)=O)C5)c(F)c3)c2cc1O[C@H](C)c1c(Cl)cnnc1Cl [Example 259, (R)-5-(1-(3,5-dichloropyridazin-4-yl)ethoxy)-3-(5-fluoro-6-(6-(methylsulfonyl)-2,6-diazaspiro[3.3]heptan-2-yl)pyridin-3-yl)-6-methyl-1H-indazole]
18 | 1 to 20 | 1 to 20 | 1 to 20 | 1 to 20 | 1 to 20 | – | C[C@@H](Oc1cc2c(-c3ccc(N4CC5(C4)CN(S(C)(=O)=O)C5)nc3)n[nH]c2cc1Cl)c1c(Cl)cncc1Cl [Example 260, (R)-6-chloro-5-(1-(3,5-dichloropyridin-4-yl)ethoxy)-3-(6-(6-(methylsulfonyl)-2,6-diazaspiro[3.3]heptan-2-yl)pyridin-3-yl)-1H-indazole]
19 | 1 to 20 | 1 to 20 | 1 to 20 | 1 to 20 | 1 to 20 | – | COc1cc2[nH]nc(-c3ccc(N4CC5(C4)CN(S(C)(=O)=O)C5)nc3)c2cc1O[C@H](C)c1c(Cl)cnnc1Cl [Example 261, (R)-5-(1-(3,5-dichloropyridazin-4-yl)ethoxy)-6-methoxy-3-(6-(6-(methylsulfonyl)-2,6-diazaspiro[3.3]heptan-2-yl)pyridin-3-yl)-1H-indazole]
20 | 1 to 20 | 1 to 20 | 1 to 20 | 1 to 20 | 1 to 20 | – | C[C@@H](Oc1cc2c(-c3ccc(N4CC5(C4)CN(S(C)(=O)=O)C5)nc3)n[nH]c2cc1F)c1c(Cl)cnnc1Cl [Example 262, (R)-5-(1-(3,5-dichloropyridazin-4-yl)ethoxy)-6-fluoro-3-(6-(6-(methylsulfonyl)-2,6-diazaspiro[3.3]heptan-2-yl)pyridin-3-yl)-1H-indazole]
21 | 1 to 20 | 1 to 20 | 1 to 20 | 1 to 20 | 1 to 20 | – | C[C@@H](Oc1cc2c(-c3ccc(N4CC5(C4)CN(S(C)(=O)=O)C5)nc3)n[nH]c2cc1Cl)c1c(Cl)cnnc1Cl [Example 263, (R)-6-chloro-5-(1-(3,5-dichloropyridazin-4-yl)ethoxy)-3-(6-(6-(methylsulfonyl)-2,6-diazaspiro[3.3]heptan-2-yl)pyridin-3-yl)-1H-indazole]
